Laboratory results taken from PMC11684019, “Unveiling the Antimycobacterial Potential of Novel 4-Alkoxyquinolines: Insights into Selectivity, Mechanism of Action, and In Vivo Exposure” (Journal of Medicinal Chemistry, 2024).
≈ marks a conversion by molar mass, not a printed value. Where “and” joins values, the source holds several entries; their conditions need not be identical. Equal entries are not always repeated. Where two headings read alike, the source gives them in different places. Marks after values point to notes of the source that are not given here.

Assays:
[1] = tested on: M. tuberculosis strain PT2 (MDR clinical isolate); assay type: cell-based, Mycobacterium tuberculosis
[2] = mice; for Plasma concentration: 300 mg/kg single dose gavage
[3] = tested on: Vero cells; conditions: read-out: CC50 Vero; Neutral Red method, 72 h
[4] = tested on: M. tuberculosis H37Rv strain in murine macrophage RAW 264.7 cells; assay type: cell-based, Mycobacterium tuberculosis; conditions: for Reduction of Mtb load compared to the untreated group: 5 days
[5] = tested on: Escherichia coli ATCC 25922; assay type: cell-based; conditions: ATCC 25922, tested at 20 μM, 24 h
[6] = tested on: M. tuberculosis H37Rv strain; assay: microbe, parasite or virus in culture; assay type: cell-based, Mycobacterium tuberculosis; conditions: M. tuberculosis H37Rv, resazurin-based assay
[7] = Aqueous solubility (UHPLC-DAD); conditions: 25 °C, 4 h; for Solubility pH 1.2: 0.1 M HCl solution; for Solubility pH 9.1: 0.1 M NH4HCO3 solution; for Solubility pH 7.4: PBS
[8] = tested on: M. tuberculosis strain PT12 (MDR clinical isolate); assay type: cell-based, Mycobacterium tuberculosis
[9] = tested on: M. tuberculosis strain PT20 (MDR clinical isolate); assay type: cell-based, Mycobacterium tuberculosis
[10] = rat liver microsomes, 2 μM, NADPH, 37 °C
[11] = 10 μM, pH 7.4, 5 h, 25 °C
[12] = tested on: Staphylococcus aureus ATCC 25923; assay type: cell-based; conditions: ATCC 25923, tested at 20 μM, 24 h
[13] = tested on: HepG2 cells; conditions: read-out: CC50 HepG2; Neutral Red method, 72 h
[14] = tested on: Vero cells; conditions: read-out: CC50 Vero; MTT method, 72 h
[15] = tested on: HepG2 cells; conditions: read-out: CC50 HepG2; MTT method, 72 h
[16] = tested on: Klebsiella pneumoniae multidrug-resistant clinical isolate; assay type: cell-based; conditions: tested at 20 μM, 24 h
[17] = 24 h, 10 μM
Method: The assessment of chemical stability at different pH levels provides insights into the quantity or concentration of the test compound that remains unchanged and, consequently, available for absorption. […] Following this incubation period, the test compounds were quantified using HPLC-MS/MS, with alprenolol serving as the analytical control. This experiment was conducted by CEMSA (São Paulo, SP, Brazil).

[18] = tested on: Acinetobacter baumannii multidrug-resistant clinical isolate; assay type: cell-based; conditions: tested at 20 μM, 24 h
[19] = tested on: Mtb; conditions: cited from earlier work
[20] = in vitro; conditions: PAMPA, pH 7.4

Compound: CCc1ccc(NCCCOc2cc(C)nc3ccc(Br)cc23)cc1 [8t, N-(3-((6-bromo-2-methylquinolin-4-yl)oxy)propyl)-4-ethylaniline]
- MIC PT2 [1]: <0.05 µM
- Ke (elimination rate constant) ([2]; 300 mg/kg gavage): 0.16 h^–1
- Plasma concentrations for a span of up to 8 h ([2]; 300 mg/kg gavage): exceeding 7.49 μM
- Tmax ([2]; 300 mg/kg gavage): 1 h
- t1/2 (elimination half-life) ([2]; 300 mg/kg gavage): 4.3 ± 1.2 h
- Cmax ([2]; 300 mg/kg gavage, noncompartmental analysis): 32.1 ± 3.9 µM
- AUC0-t ([2]; 300 mg/kg gavage, time 0 to 8 h): 127.5 ± 5.7 µM·h
- Plasma concentration ([2]; 0.5 h): 11.10 ± 1.24 µM
- Plasma concentration ([2]; 0.75 h): 15.73 ± 1.61 µM
- Plasma concentration ([2]; 1 h): 32.15 ± 3.94 µM
- Plasma concentration ([2]; 4 h): 13.45 ± 2.01 µM
- Plasma concentration ([2]; 8 h, 300 mg/kg): 9.80 µM and 9.80 ± 2.13 µM
- CC50 [3]: 11.8 µM
- Kind of effect on intracellular growth of M. tuberculosis H37Rv [4]: bacteriostatic effect
- Log10 CFU/well (Mean ± SD) [4]: 3.90 ± 0.30 ^d Log10 CFU/well and 4.10 ± 0.02 ^d Log10 CFU/well
- Reduction of Mtb load compared to the untreated group ([4]; 1 μM): 1.27 log10 CFU
- Reduction of Mtb load compared to the untreated group ([4]; 5 μM): 1.07 log10 CFU
- MIC E. coli [5]: MIC E. coli = > 20 μM
- MIC [6]: 0.05 µM (≈ 0.02 µg/mL)
- Solubility pH 1.2 [7]: >2,500 μM
- Solubility pH 9.1 [7]: 30.22 μM
- Solubility pH 7.4 [7]: 35.3 μM
- MIC PT12 [8]: <0.05 µM
- MIC PT20 [9]: <0.05 µM
- Clint (intrinsic clearance) [10]: Clint ^f = 58 mL/min/kg
- t1/2 (half-life) [10]: t1/2 ^g = 7.0 min
- PAMPA permeability [11]: PAMPA = 0.2 × 10^−6 cm/s
- MIC S. aureus [12]: MIC S. aureus = > 20 μM
- CC50 [13]: > 20 µM
- CC50 [14]: > 20 µM
- CC50 [15]: > 20 µM
- MIC K. pneumoniae [16]: MIC K. pneumoniae = > 20 μM
- Chemical Stability pH 1.2 (percentage of remaining compound) ([17]; 0.1 M HCl, 37 °C): Chemical Stability ^b pH 1.2 ^c = 100%
- Chemical Stability pH 9.1 (percentage of remaining compound) ([17]; 0.1 M NH4HCO3, 37 °C): Chemical Stability ^b pH 9.1 ^e = 6.0%
- Chemical Stability pH 7.4 (percentage of remaining compound) ([17]; PBS, 37 °C): Chemical Stability ^b pH 7.4 ^d = 5.3%
- MIC A. baumannii [18]: MIC A. baumannii = > 20 μM

Compound: COc1ccc2nc(C)cc(OCC(=O)Nc3ccccc3OC)c2c1 [compound 1]
- MIC (Mtb) [19]: 0.44 µM (≈ 0.155 µg/mL)

Compound: 4-Ethyl-N-(3-((6-methoxy-2-methylquinolin-4-yl)oxy)propyl)aniline [8i]
- MIC PT2 [1]: <0.06 µM
- CC50 [3]: 4.2 µM
- MIC [6]: 0.06 µM
- MIC PT12 [8]: <0.06 µM
- MIC PT20 [9]: <0.06 µM
- CC50 [13]: 8.1 µM
- CC50 [14]: < 1 µM
- CC50 [15]: 0.3 µM

Compound: 4-Iodo-N-(3-((6-methoxy-2-methylquinolin-4-yl)oxy)propyl)aniline [8e]
- MIC PT2 [1]: <0.05 µM
- CC50 [3]: 7.5 µM
- MIC [6]: 0.09 µM
- MIC PT12 [8]: <0.05 µM
- MIC PT20 [9]: <0.05 µM
- CC50 [13]: 12.8 µM
- CC50 [14]: 8.2 µM
- CC50 [15]: 10.6 µM

Compound: COc1ccc2nc(C)cc(OCC(=O)c3cccc(Cl)c3)c2c1 [compound 5]
- MIC (Mtb) [19]: 1.8 µM (≈ 0.615 µg/mL)

Compound: COc1ccc2nc(C)cc(OCC(=O)Nc3ccc4ccccc4c3)c2c1 [compound 2]
- MIC (Mtb) [19]: 0.05 µM (≈ 0.0186 µg/mL)

Compound: N-(3-((6-Chloro-2-methylquinolin-4-yl)oxy)propyl)-4-ethylaniline [8n]
- MIC PT2 [1]: <0.06 µM
- MIC [6]: 0.03 µM
- Solubility pH 1.2 [7]: 200 μM
- Solubility pH 9.1 [7]: 0.37 μM
- Solubility pH 7.4 [7]: 0.06 μM
- MIC PT12 [8]: <0.06 µM
- MIC PT20 [9]: <0.06 µM

Compound: Cc1cc(OCCCNc2ccc(Cl)cc2)c2cc(Br)ccc2n1 [8r, N-(3-((6-bromo-2-methylquinolin-4-yl)oxy)propyl)-4-chloroaniline]
- MIC PT2 [1]: <0.05 µM
- CC50 [3]: 11.2 µM
- MIC [6]: 0.10 µM (≈ 0.0406 µg/mL)
- Solubility pH 1.2 [7]: >2,470 μM
- Solubility pH 9.1 [7]: 57.18 μM
- Solubility pH 7.4 [7]: 15.0 μM
- MIC PT12 [8]: <0.05 µM
- MIC PT20 [9]: <0.05 µM
- CC50 [13]: > 20 µM
- CC50 [14]: 19.8 µM
- CC50 [15]: > 20 µM

Compound: 4-Bromo-N-(3-((6-methoxy-2-methylquinolin-4-yl)oxy)propyl)aniline [8d]
- MIC PT2 [1]: <0.05 µM
- CC50 [3]: 12.8 µM
- MIC [6]: 0.10 µM
- MIC PT12 [8]: <0.05 µM
- MIC PT20 [9]: <0.05 µM
- CC50 [13]: 16.8 µM
- CC50 [14]: > 20 µM
- CC50 [15]: 15.3 µM

Compound: COc1ccc2nc(C)cc(OCc3ccc(Cl)c(Cl)c3)c2c1 [compound 4]
- MIC (Mtb) [19]: 0.3 µM (≈ 0.104 µg/mL)

Compound: C=CCc1ccccc1OCC(O)CNC(C)C (centres unmarked) [alprenolol]
- Papp at 5 h, 10 µM [20]: 41 nm/s

Compound: CCCc1ccc(NC(=O)COc2cc(C)nc3ccc(OC)cc23)cc1 [compound 3]
- MIC (Mtb) [19]: 0.05 µM (≈ 0.0182 µg/mL)

Compound: N-(3-((6-bromo-2-ethylquinolin-4-yl)oxy)propyl)-4-ethylaniline [8w]
- MIC PT2 [1]: <0.05 µM
- CC50 [3]: 9.1 µM
- MIC [6]: 0.10 µM
- MIC PT12 [8]: <0.05 µM
- MIC PT20 [9]: <0.05 µM
- CC50 [13]: 8.3 µM
- CC50 [14]: > 20 µM
- CC50 [15]: > 20 µM
